In patent US9637770B2, “Methods and devices for handling biofouling” (MEKOROT WATER COMPANY, LTD., priority 2011, dated 2017):

Assays:
microorganisms = assay: Biofouling index on the biosensor after 24 h circulation of water dosed with hypochlorite; format: cell-based
Method: The change in color on the biosensor was determined for each water sample in six repetitions as described above.
The biofouling Index was determined as follows: Biofouling Index=100×PPP×(1−PPP)+(100−LL)×PPP
For simplicity, the Biofouling Index was translated into a biofouling score, A, B, C, . . . F, according to ranges of biofouling, with lower biofouling range, representing low biofouling identified as score A. The correlating score is identified in Table 7.
Hypochlorite was dissolved to obtain a stock solution of 140 mg/L. Dilutions of this stock solution were as detailed in Table 9. The dilutions were injected into the water circulating in the biosensing apparatus and the total chlorine concentration was measured for each dilution. As control, no hypochlorite was added.
Circulation conditions: flow: 90 ml/min; circulation container volume: 2 L; duration of circulation: 24 hours at a temperature of 35° C.

[1] = system: biofilm on the membrane surface; assay: Normalized permeate flow of the pilot plant with low dose of chloramines
Method: FIG. 7 provides a graph showing the normalized permeate flow as a function of operation time for a pilot plant with low dose of chloramines as determined with the bio-sensor test. Also examined was the effect of preventing the development of biofilm on the membrane surface when 4.2 mg/L hypochlorite were added.

biofilm on RO membrane = assay: Biofilm grown on RO membranes for 15 days with input water containing chloramines, measured with CLSM; format: cell-based
Method: Biofilm was allowed to grow on the surface of miniature RO membranes (ESNA1-LF, Hydranautics, USA), equipped within a device having the membrane held within a closed chamber, the chamber comprising a feed inlet, brine outlet and permeate outlet for fluids, where the pressure obtain from the desalination pilot pressurized flows.
For biofilm analysis a 5×5 mm membrane segment was taken from each of the tested membranes. Each segment was inserted into an Eppendorf test tube comprising 2 ml 0.24% sterilized TRIS solution (pH 7.2) and the test tubes were turned upside down gently several time. […]
The staining of the RO membranes with SYTO9 and Tetramethylrhodamine, provided information about the presence and quantity of microorganisms and the extracellular polymeric substance (EPS), respectively. The CLSM images were scanned and analyzed with PHLIP software (http://sourceforge.net/projects/phlip/) which enabled quantization of CLSM data with respect to the biovolume of the biofilm. […]
In addition, water from sampling Point No. 3 (SP3) was allowed to flow through miniature membrane facilities (as described above) in parallel, for 15 days in order to allow growth of biofilm on the surface of the membranes. After 15 days, the membranes were treated and analyzed as described above in order to determine the resulting biovolume. […]

In the case of `OCl` [Sodium hypochlorite, sodium hypochlorite], the “Amount of hypochlorite sufficient to prevent biofouling (close to zero biofouling)” value (microorganisms; 24 h circulation, 35° C.) is reported as 4.2 mg/L, the “Biofouling index after addition of hypochlorite (drop from control level C)” value (microorganisms; all tested amounts of hypochlorite, control C, 24 h circulation) is reported as “B (biofouling index <6)” and the Biofouling index (microorganisms; sodium hypochlorite 0.7 mg/l, total chloramines 0.17 mg/l, 24 h circulation, 35° C.) is reported as “B (biofouling index <6)”. For the same compound, the Biofouling index (microorganisms; sodium hypochlorite 1.4 mg/l, total chloramines 0.29 mg/l, 24 h circulation, 35° C.) was “B (biofouling index <6)”, the Biofouling index (microorganisms; sodium hypochlorite 2.1 mg/l, total chloramines 0.45 mg/l, 24 h circulation, 35° C.) was “B (biofouling index <6)” and the Biofouling index (microorganisms; sodium hypochlorite 2.8 mg/l, total chloramines 0.94 mg/l, 24 h circulation, 35° C.) was “B (biofouling index <6)”. For the same compound, the Biofouling index (microorganisms; sodium hypochlorite 2.8 mg/l, total chloramines 1.0 mg/l, 24 h circulation, 35° C.) was “B (biofouling index <6)”, the Biofouling index (microorganisms; sodium hypochlorite 4.2 mg/l, total chloramines 1.42 mg/l, 24 h circulation, 35° C.) was “B (biofouling index <6)” and the Biofouling index (microorganisms; sodium hypochlorite 4.2 mg/l, total chloramines 1.48 mg/l, 24 h circulation, 35° C.) was “B (biofouling index <6)”. The Biofouling index (microorganisms; sodium hypochlorite 4.6 mg/l, total chloramines 1.63 mg/l, 24 h circulation, 35° C.) was “B (biofouling index <6)”, the Biofouling index (microorganisms; sodium hypochlorite 5.6 mg/l, total chloramines 1.86 mg/l, 24 h circulation, 35° C.) was “B (biofouling index <6)” and the “Biofouling index (numerical, FIG. 4)” value (microorganisms; total chlorine concentration of 1.4 mg/L and more) was “close to zero”. The “Effect on normalized permeate flow” value ([1]; 4.2 mg/L hypochlorite, 320 hours, Stage I, Stage II and Stage III) was “no decrease in permeate flow”, the “Effect on biofouling on the membranes” value ([1]; treatment with hypochlorite, data not shown) was “reduced biofouling on the membranes” and the “Biovolume of biofilm on the membrane relative to that without hypochlorite” value (biofilm on RO membrane; 4.2 mg/L hypochlorite (1.5 mg/L chloramines), injected 4 hours per day, Stage I input water) was “about ⅕”. The “Thickness of biofilm relative to that in the absence of chloramines” value (biofilm on RO membrane; hypochlorite added (chloramines)) was “about ⅕”.
